In ChEMBL document CHEMBL3259791, “Discovery of (E)-3-((styrylsulfonyl)methyl)pyridine and (E)-2-((styrylsulfonyl)methyl)pyridine derivatives as anticancer agents: synthesis, structure-activity relationships, and biological activities” (J Med Chem, 2014):

How the values were obtained:
Type in all cases: functional
WI-38 [1] = test: Cell cycle arrest in human WI38 cells assessed as accumulation at G1 phase at 0.06 uM after 24 hrs by flow cytometric analysis (reference value: 55.89%)
A2780 [2] = test: Cell cycle arrest in human A2780 cells assessed as accumulation at G2/M phase at 0.06 uM after 24 hrs by flow cytometric analysis (reference value: 21.81%)
WI-38 [3] = test: Antiproliferative activity against human WI38 cells assessed as cell growth inhibition after 72 hrs by MTT assay; conditions: WI-38, 72 h
A2780 [4] = test: Cell cycle arrest in human A2780 cells assessed as accumulation at G1 phase at 1 uM after 24 hrs by flow cytometric analysis (reference value: 54.89%)
WI-38 [5] = test: Cell cycle arrest in human WI38 cells assessed as accumulation at subG1 phase at 0.06 uM after 24 hrs by flow cytometric analysis (reference value: 10.53%)
A2780 [6] = test: Induction of apoptosis in human A2780 cells assessed as early-stage apoptotic cells at […] after 48 hrs by annexin V/PI double staining (reference value: 7.13%)
A2780 [7] = test: Cell cycle arrest in human A2780 cells assessed as accumulation at S phase at 0.06 uM after 24 hrs by flow cytometric analysis (reference value: 22.72%)
WI-38 [8] = test: Induction of apoptosis in human WI38 cells assessed as late-stage apoptotic cells at 1 uM after 48 hrs by annexin V/PI double staining (reference value: 16.26%)
WI-38 [9] = test: Cell cycle arrest in human WI38 cells assessed as accumulation at S phase at […] after 24 hrs by flow cytometric analysis (reference value: 16.25%)
MDA-MB-231 = test: Antiproliferative activity against ER negative human MDA-MB-231 cells assessed as cell growth inhibition after 72 hrs by MTT assay; conditions: MDA-MB-231, 72 h
A2780 [10] = test: Induction of apoptosis in human A2780 cells assessed as late-stage apoptotic cells at 0.06 uM after 48 hrs by annexin V/PI double staining (reference value: 10.20%)
WI-38 [11] = test: Induction of apoptosis in human WI38 cells assessed as viable cells at 0.06 uM after 48 hrs by annexin V/PI double staining (reference value: 80.59%); conditions: WI-38, 48 h, read-out: Activity
A2780 [12] = test: Induction of apoptosis in human A2780 cells assessed as late-stage apoptotic cells at 1 uM after 48 hrs by annexin V/PI double staining (reference value: 10.20%)
WI-38 [13] = test: Cell cycle arrest in human WI38 cells assessed as accumulation at G2/M phase at 1 uM after 24 hrs by flow cytometric analysis (reference value: 17.36%)
A2780 [14] = test: Cell cycle arrest in human A2780 cells assessed as accumulation at G2/M phase at […] after 24 hrs by flow cytometric analysis (reference value: 21.81%)
HCT-116 = test: Antiproliferative activity against human HCT116 cells assessed as cell growth inhibition after 72 hrs by MTT assay; conditions: HCT-116, 72 h
WI-38 [15] = test: Induction of apoptosis in human WI38 cells assessed as necrotic cells at […] after 48 hrs by annexin V/PI double staining (reference value: 0.99%)
WI-38 [16] = test: Cell cycle arrest in human WI38 cells assessed as accumulation at G2/M phase at […] after 24 hrs by flow cytometric analysis (reference value: 17.36%)
DU-145 = test: Antiproliferative activity against AR negative human DU145 cells assessed as cell growth inhibition after 72 hrs by MTT assay; conditions: DU-145, 72 h
WI-38 [17] = test: Cell cycle arrest in human WI38 cells assessed as accumulation at G2/M phase at 0.06 uM after 24 hrs by flow cytometric analysis (reference value: 17.36%)
A2780 [18] = test: Induction of apoptosis in human A2780 cells assessed as necrotic cells at […] after 48 hrs by annexin V/PI double staining (reference value: 0.53%)
A2780 [19] = test: Cell cycle arrest in human A2780 cells assessed as accumulation at subG1 phase at […] after 24 hrs by flow cytometric analysis (reference value: 0.62%)
HeLa = test: Antiproliferative activity against human HeLa cells assessed as cell growth inhibition after 72 hrs by MTT assay
A2780 [20] = test: Cell cycle arrest in human A2780 cells assessed as accumulation at subG1 phase at 0.06 uM after 24 hrs by flow cytometric analysis (reference value: 0.62%)
WI-38 [21] = test: Cell cycle arrest in human WI38 cells assessed as accumulation at G1 phase at […] after 24 hrs by flow cytometric analysis (reference value: 55.89%)
[22] = Antiproliferative activity against human PANC1 cells assessed as cell growth inhibition after 72 hrs by MTT assay; conditions: PANC-1, 72 h
WI-38 [23] = test: Induction of apoptosis in human WI38 cells assessed as early-stage apoptotic cells at 0.06 uM after 48 hrs by annexin V/PI double staining (reference value: 2.16%)
WI-38 [24] = test: Induction of apoptosis in human WI38 cells assessed as early-stage apoptotic cells at 1 uM after 48 hrs by annexin V/PI double staining (reference value: 2.16%)
A2780 [25] = test: Antiproliferative activity against human A2780 cells assessed as cell growth inhibition after 72 hrs by MTT assay; conditions: A2780, 72 h
MCF7 = test: Antiproliferative activity against ER positive human MCF7 cells assessed as cell growth inhibition after 72 hrs by MTT assay; conditions: MCF7, 72 h
WI-38 [26] = test: Induction of apoptosis in human WI38 cells assessed as early-stage apoptotic cells at […] after 48 hrs by annexin V/PI double staining (reference value: 2.16%)
A2780 [27] = test: Cell cycle arrest in human A2780 cells assessed as accumulation at G1 phase at 0.06 uM after 24 hrs by flow cytometric analysis (reference value: 54.89%)
WI-38 [28] = test: Induction of apoptosis in human WI38 cells assessed as late-stage apoptotic cells at 0.06 uM after 48 hrs by annexin V/PI double staining (reference value: 16.26%)
WI-38 [29] = test: Induction of apoptosis in human WI38 cells assessed as viable cells at 1 uM after 48 hrs by annexin V/PI double staining (reference value: 80.59%); conditions: WI-38, 48 h, read-out: Activity
A2780 [30] = test: Induction of apoptosis in human A2780 cells assessed as early-stage apoptotic cells at 0.06 uM after 48 hrs by annexin V/PI double staining (reference value: 7.13%)
WI-38 [31] = test: Cell cycle arrest in human WI38 cells assessed as accumulation at subG1 phase at […] after 24 hrs by flow cytometric analysis (reference value: 10.53%)
WI-38 [32] = test: Cell cycle arrest in human WI38 cells assessed as accumulation at S phase at 1 uM after 24 hrs by flow cytometric analysis (reference value: 16.25%)
A2780 [33] = test: Cell cycle arrest in human A2780 cells assessed as accumulation at G2/M phase at 1 uM after 24 hrs by flow cytometric analysis (reference value: 21.81%)
WI-38 [34] = test: Induction of apoptosis in human WI38 cells assessed as necrotic cells at 1 uM after 48 hrs by annexin V/PI double staining (reference value: 0.99%)

Row | Structure (SMILES) | Activity (WI-38 [1]) [%] | Activity (A2780 [2]) [%] | GI50 (WI-38 [3]) [nM] | Activity (A2780 [4]) [%] | Activity (WI-38 [5]) [%] | Activity (A2780 [6]) [%] | Activity (A2780 [7]) [%] | Activity (WI-38 [8]) [%] | Activity (WI-38 [9]) [%] | GI50 (MDA-MB-231) [nM] | Activity (A2780 [10]) [%] | viability at 0.06 µM (WI-38 [11]) [%] | Activity (A2780 [12]) [%] | Activity (WI-38 [13]) [%] | Activity (A2780 [14]) [%] | GI50 (HCT-116) [nM] | Activity (WI-38 [15]) [%] | Activity (WI-38 [16]) [%] | GI50 (DU-145) [nM] | Activity (WI-38 [17]) [%] | other results
1 | COc1cc(OC)c(/C=C/S(=O)(=O)Cc2ccc(OC)c(NCC(=O)O)c2)c(OC)c1 [RIGOSERTIB] | 64.47 | 19.63 | > 10000 | 5.37 | 5.71 | 38.11 | 26.34 | 22.43 | 9.32 | 57 | 6.27 | 85.5 | 21.83 | 19.27 | 31.77 | 70 | 1.89 | 26.83 | 75 | 18 | Activity (A2780 [18]): 0.71%; Activity (A2780 [19]): 5.98%; GI50 (HeLa): 12 nM; Activity (A2780 [20]): 0.63%; Activity (WI-38 [21]): 54.39%; GI50 [22]: 39 nM; Activity (WI-38 [23]): 1.68%; Activity (WI-38 [24]): 8.88%; GI50 (A2780 [25]): 62 nM; GI50 (MCF7): 50 nM; Activity (WI-38 [26]): 5.36%; Activity (A2780 [27]): 53.41%; Activity (WI-38 [28]): 11.54%; viability at 1 µM (WI-38 [29]): 65.7%; Activity (A2780 [30]): 3.82%; Activity (WI-38 [31]): 9.46%; Activity (WI-38 [32]): 10.36%; Activity (A2780 [33]): 60.57%; Activity (WI-38 [34]): 2.99%
2 | COc1cc(OC)c(/C=C/S(=O)(=O)Cc2ccc(OC)c(NS(C)(=O)=O)n2)c(OC)c1 | 51.48 | 21.08 | > 10000 | 14.2 | 10.05 | 5.55 | 20.54 | 21.15 | 13.26 | 641 | 7.36 | 78.1 | 24.63 | 26.14 | 19.36 | 610 | 1.11 | 14.08 | 484 | 13.96 | Activity (A2780 [18]): 0.48%; Activity (A2780 [19]): 0.77%; GI50 (HeLa): 556 nM; Activity (A2780 [20]): 0.95%; Activity (WI-38 [21]): 61.63%; GI50 [22]: 604 nM; Activity (WI-38 [23]): 2.49%; Activity (WI-38 [24]): 10.08%; GI50 (A2780 [25]): 406 nM; GI50 (MCF7): 468 nM; Activity (WI-38 [26]): 2.86%; Activity (A2780 [27]): 57.73%; Activity (WI-38 [28]): 18.51%; viability at 1 µM (WI-38 [29]): 67%; Activity (A2780 [30]): 4.67%; Activity (WI-38 [31]): 11.06%; Activity (WI-38 [32]): 9.93%; Activity (A2780 [33]): 59.38%; Activity (WI-38 [34]): 1.73%
3 | COc1cc(OC)c(/C=C/S(=O)(=O)Cc2ccc(OC)c(N)n2)c(OC)c1 | 54.04 | 59.72 | > 10000 | 13.02 | 13.31 | 46.99 | 17.39 | 15.52 | 9.5 | 7 | 25.69 | 82.2 | 21.09 | 24.94 | 50.94 | 8 | 5.41 | 24.87 | 6 | 22.85 | Activity (A2780 [18]): 1.97%; Activity (A2780 [19]): 12.42%; GI50 (HeLa): < 1 nM; Activity (A2780 [20]): 10.06%; Activity (WI-38 [21]): 53.55%; GI50 [22]: < 1 nM; Activity (WI-38 [23]): 1.37%; Activity (WI-38 [24]): 2.86%; GI50 (A2780 [25]): 7 nM; GI50 (MCF7): 6 nM; Activity (WI-38 [26]): 1.49%; Activity (A2780 [27]): 12.87%; Activity (WI-38 [28]): 13.04%; viability at 1 µM (WI-38 [29]): 79.8%; Activity (A2780 [30]): 38%; Activity (WI-38 [31]): 12.08%; Activity (WI-38 [32]): 6.87%; Activity (A2780 [33]): 59.78%; Activity (WI-38 [34]): 1.83%
